In article PMC5175178, “Development of an in-vivo active reversible butyrylcholinesterase inhibitor” (Scientific Reports, 2016):
Read-outs that look alike come from different tables or passages of the source.

Experiments:
mAChE = molecular target: T1, mAChE (Mus musculus, UniProt P21836); assay: In-vitro inhibitory activity against mAChE, method of Ellman; type: biochemical, murine
T1 construct: donated by Florian Nachon (IBS, Grenoble)
T1 sequence (P21836 32-614): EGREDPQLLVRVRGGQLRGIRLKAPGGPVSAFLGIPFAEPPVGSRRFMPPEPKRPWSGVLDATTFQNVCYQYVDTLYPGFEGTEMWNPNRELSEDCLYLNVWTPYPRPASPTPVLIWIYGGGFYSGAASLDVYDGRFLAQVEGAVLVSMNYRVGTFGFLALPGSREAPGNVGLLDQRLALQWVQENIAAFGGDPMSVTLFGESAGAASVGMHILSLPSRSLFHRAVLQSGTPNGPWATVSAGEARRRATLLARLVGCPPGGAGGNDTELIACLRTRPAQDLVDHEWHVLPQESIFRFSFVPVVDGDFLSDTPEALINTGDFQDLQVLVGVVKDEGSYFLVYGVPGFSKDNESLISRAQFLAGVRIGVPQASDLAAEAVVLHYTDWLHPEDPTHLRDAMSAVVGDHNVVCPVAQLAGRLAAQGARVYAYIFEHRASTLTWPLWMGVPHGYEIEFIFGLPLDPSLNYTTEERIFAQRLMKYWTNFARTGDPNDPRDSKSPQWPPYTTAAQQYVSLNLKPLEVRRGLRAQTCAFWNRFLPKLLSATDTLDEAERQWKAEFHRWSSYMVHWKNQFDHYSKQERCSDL
Procedure: (§1) The inhibitory potencies of the compounds against the ChEs were determined using the method of Ellman[32].
(§2) The enzyme solutions were prepared by dilution of the concentrated stocks in phosphate-buffered solution (0.1 M, pH 8.0). […] The reactions were started by addition of the substrate, at room temperature. The final content of the organic solvent (DMSO) was always 1%. […] To determine the blank value (b), phosphate-buffered solution replaced the enzyme solution. The initial velocity (v0) was calculated from the slope of the linear trend obtained, with each measurement carried out in triplicate. […] The compounds were added to each well at a final concentration of 10 μM. […] The initial velocities in the presence of the test compounds (vi) were calculated. The inhibitory potencies are expressed as the residual activities (RA = (vi – b) / (vo – b)). […] The IC50 values were obtained by plotting the residual enzyme activities against the applied inhibitor concentrations, with the experimental data fitted to Equation (1):
(§3) where X is the logarithm of the inhibitor concentration, and Y is the residual activity. For the fitting procedure, the Gnuplot software and an in-house python script were used.

huBChE = molecular target: T2, huBChE (Homo sapiens, UniProt P06276); type: biochemical; settings: for IC50: head prints no unit, nM, read-out: IC50 ±SEM huBChE
T2 construct: made in house
Procedure: as §1, §2, §3

[1] = residual activity at 10 μM, %RA > 75% was considered as no inhibition, Table 1
[2] = residual activity at 10 µM, %RA >75% was considered no inhibition, Supplementary Table 1
[3] = residual activity at 10 μM, Table 1

T2 sequence (P06276 29-602): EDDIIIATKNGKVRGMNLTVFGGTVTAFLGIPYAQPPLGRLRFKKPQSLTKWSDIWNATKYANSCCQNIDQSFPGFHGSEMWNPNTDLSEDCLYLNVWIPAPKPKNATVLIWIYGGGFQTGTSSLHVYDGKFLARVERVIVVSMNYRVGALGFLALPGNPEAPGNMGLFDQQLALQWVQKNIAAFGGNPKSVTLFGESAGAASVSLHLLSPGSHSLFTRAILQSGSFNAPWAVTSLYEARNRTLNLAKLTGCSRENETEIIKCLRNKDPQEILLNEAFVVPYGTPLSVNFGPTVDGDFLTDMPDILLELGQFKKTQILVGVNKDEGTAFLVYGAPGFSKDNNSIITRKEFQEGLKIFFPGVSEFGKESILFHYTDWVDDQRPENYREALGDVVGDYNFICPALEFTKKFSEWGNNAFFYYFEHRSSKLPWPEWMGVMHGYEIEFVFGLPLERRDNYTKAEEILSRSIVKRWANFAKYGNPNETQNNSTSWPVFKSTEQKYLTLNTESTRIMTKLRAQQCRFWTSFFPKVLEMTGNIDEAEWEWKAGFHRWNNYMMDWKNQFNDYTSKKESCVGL

SMILES | %RA at 10 µM ±SEM mAChE (mAChE; [2]) | IC50 (huBChE; Supplementary Table 1) | other results
COCCN(CC1CCCN(C2Cc3ccccc3C2)C1)S(=O)(=O)c1ccc2ccccc2c1 (racemic) [compound 3, (±)-N-((1-(2,3-dihydro-1H-inden-2-yl)piperidin-3-yl)methyl)-N-(2-methoxyethyl)naphthalene-2-sulfonamide] | 72% ±1% |  | %RA at 10 µM ±SEM mAChE (mAChE; [1]): 72% ± 1%; %RA at 10μM ± SEM huBChE (huBChE; [3]): 1.47% ± 1.54%
COCCN(CC1CCCN(C2Cc3ccccc3C2)C1)S(=O)(=O)c1cccc(N)c1 (racemic) [compound 4, (±)-3-amino-N-((1-(2,3-dihydro-1H-inden-2-yl)piperidin-3-yl)methyl)-N-(2-methoxyethyl)benzenesulfonamide] | 90% ±0.003% |  | %RA at 10 µM ±SEM mAChE (mAChE; [1]): 90% ± 0.003%; %RA at 10μM ± SEM huBChE (huBChE; [3]): 2.34% ± 0.13%
COCCCN(CC1CCCN(Cc2ccccc2)C1)S(=O)(=O)c1ccc2ccccc2c1 (racemic) [compound 5, (±)-N-((1-benzylpiperidin-3-yl)methyl)-N-(3-methoxypropyl)naphthalene-2-sulfonamide] | 95% ±5% |  | %RA at 10 µM ±SEM mAChE (mAChE; [1]): 95% ± 5%; %RA at 10μM ± SEM huBChE (huBChE; [3]): 0.71% ± 0.66%
O=S(=O)(NCC1CCCN(Cc2ccccc2)C1)c1ccc2ccccc2c1 (racemic) [compound 7, (±)-N-((1-benzylpiperidin-3-yl)methyl)naphthalene-2-sulfonamide] | 78% ±3% |  | 
CN(CC1CCCN(Cc2ccccc2)C1)S(=O)(=O)c1ccc2ccccc2c1 (racemic) [compound 8, (±)-N-((1-benzylpiperidin-3-yl)methyl)-N-methylnaphthalene-2-sulfonamide] | 82% ±1% |  | 
COCCN(CC1CCCN(C2Cc3ccccc3C2)C1)S(=O)(=O)c1cccc([N+](=O)[O-])c1 (racemic) [compound 13, (±)-N-((1-(2,3-dihydro-1H-inden-2-yl)piperidin-3-yl)methyl)-N-(2-methoxyethyl)-3-nitrobenzenesulfonamide] |  | 3610 ± 528 nM | 
COCCN(CC1CCCN(C2Cc3ccccc3C2)C1)S(=O)(=O)c1ccccc1 (racemic) [compound 16, (±)-N-((1-(2,3-dihydro-1H-inden-2-yl)piperidin-3-yl)methyl)-N-(2-methoxyethyl)benzenesulfonamide] | 97% ±4% | 343 ± 5 nM | 
COCCN(CC1CCCN(C2Cc3ccccc3C2)C1)S(=O)(=O)c1ccc(C)cc1 (racemic) [compound 17, (±)-N-((1-(2,3-dihydro-1H-inden-2-yl)piperidin-3-yl)methyl)-N-(2-methoxyethyl)-4-methylbenzenesulfonamide] | 86% ±3% | 279 ± 8 nM | 
COCCN(CC1CCCN(C2Cc3ccccc3C2)C1)S(=O)(=O)c1ccc(F)cc1 (racemic) [compound 18, (±)-N-((1-(2,3-dihydro-1H-inden-2-yl)piperidin-3-yl)methyl)-4-fluoro-N-(2-methoxyethyl)benzenesulfonamide] | 88% ±2% | 887 ± 80 nM | 
COCCN(CC1CCCN(C2Cc3ccccc3C2)C1)S(=O)(=O)c1ccc(OC)cc1 (racemic) [compound 19, (±)-N-((1-(2,3-dihydro-1H-inden-2-yl)piperidin-3-yl)methyl)-4-methoxy-N-(2-methoxyethyl)benzenesulfonamide] | 87% ±7% | 482 ± 66 nM | 
COCCN(CC1CCCN(C2Cc3ccccc3C2)C1)S(=O)(=O)c1ccc([N+](=O)[O-])cc1 (racemic) [compound 20, (±)-N-((1-(2,3-dihydro-1H-inden-2-yl)piperidin-3-yl)methyl)-N-(2-methoxyethyl)-4-nitrobenzenesulfonamide] | 91% ±1% | 3470 ± 52 nM | 
COCCN(CC1CCCN(C2Cc3ccccc3C2)C1)S(=O)(=O)c1ccccc1C(=O)OC (racemic) [compound 21, (±)-methyl 2-(N-((1-(2,3-dihydro-1H-inden-2-yl)piperidin-3-yl)methyl)-N-(2-methoxyethyl)sulfamoyl)benzoate] | 94% ±0.001% | 359 ± 18 nM | 
COCCN(CC1CCCN(C2Cc3ccccc3C2)C1)S(=O)(=O)c1ccc(N)cc1 (racemic) [compound 22, (±)-4-amino-N-((1-(2,3-dihydro-1H-inden-2-yl)piperidin-3-yl)methyl)-N-(2-methoxyethyl)benzenesulfonamide] | 91% ±1% | 314 ± 36 nM | 
COCCN(CC1CCCN(C2Cc3ccccc3C2)C1)S(=O)(=O)c1ccc(NC(C)=O)cc1 (racemic) [compound 23, (±)-N-(4-(N-((1-(2,3-dihydro-1H-inden-2-yl)piperidin-3-yl)methyl)-N-(2-methoxyethyl)sulfamoyl)phenyl)acetamide] | 85% ±5% | 321 ± 35 nM | 
COCCN(CC1CCCN(C2Cc3ccccc3C2)C1)S(=O)(=O)c1cccc(NC(C)=O)c1 (racemic) [compound 24, (±)-N-(3-(N-((1-(2,3-dihydro-1H-inden-2-yl)piperidin-3-yl)methyl)-N-(2-methoxyethyl)sulfamoyl)phenyl)acetamide] | 95% ±4% | 8210 ± 601 nM | 
CNC(=O)c1ccccc1S(=O)(=O)N(CCOC)CC1CCCN(C2Cc3ccccc3C2)C1 (racemic) [compound 25, (±)-2-(N-((1-(2,3-dihydro-1H-inden-2-yl)piperidin-3-yl)methyl)-N-(2-methoxyethyl)sulfamoyl)-N-methylbenzamide] | 101% ±4% | 3220 ± 492 nM | 
O=S(=O)(NCC1CCCN(c2nc3ccccc3s2)C1)c1ccc2ccccc2c1 (racemic) [compound 71, (±)-N-((1-(benzo[d]thiazol-2-yl)piperidin-3-yl)methyl)naphthalene-2-sulfonamide] |  |  | %RA at 10μM ± SEM huBChE (huBChE; residual activity at 10 µM, Supplementary Table 1): 30% ±2%
CN(CC1CCCN(Cc2ccc(F)cc2)C1)S(=O)(=O)c1ccc2ccccc2c1 (racemic) [compound 72, (±)-N-((1-(4-fluorobenzyl)piperidin-3-yl)methyl)-N-methylnaphthalene-2-sulfonamide] | 96% ±2% |  | 
COCCN(CC1CCCN(C2Cc3ccccc3C2)C1)C(=O)c1ccc2ccccc2c1 (stereo not drawn) [compound 1, reference compound] |  |  | IC50 (mAChE; Table 1, read-out: IC50 (nM) ± SEM mAChE): 102000 ± 2500 nM
COCCN(CC1CCN(Cc2ccccc2)CC1)S(=O)(=O)c1ccc2ccccc2c1 [compound 75, N-((1-benzylpiperidin-4-yl)methyl)-N-(2-methoxyethyl)naphthalene-2-sulfonamide] | 98% ±1% |  | 
COCCN(CC1CCN(C2Cc3ccccc3C2)CC1)S(=O)(=O)c1ccc2ccccc2c1 [compound 84, N-((1-(2,3-dihydro-1H-inden-2-yl)piperidin-4-yl)methyl)-N-(2-methoxyethyl)naphthalene-2-sulfonamide] | 87% ±3% |  | 
COCCCN(CC1CCN(C2Cc3ccccc3C2)CC1)S(=O)(=O)c1ccc2ccccc2c1 [compound 85, N-((1-(2,3-dihydro-1H-inden-2-yl)piperidin-4-yl)methyl)-N-(3-methoxypropyl)naphthalene-2-sulfonamide] | 86% ±0.004% |  | 
O=S(=O)(NCC1CCN(Cc2ccccc2)CC1)c1ccc2ccccc2c1 [compound 86, N-((1-benzylpiperidin-4-yl)methyl)naphthalene-2-sulfonamide] |  |  | IC50 (mAChE): 1780 ± 85 nM
